pIC50: −log10 of the molar value.
Assays:
Human PKMYT1 = target: T1, Human PKMYT1 (Homo sapiens, UniProt Q99640); assay: PKMYT1 biochemical ADP-Glo enzymatic assay; details: ADP-Glo; 15 nM PKMYT1 kinase domain, 500 µM ATP, 60 minutes at 26° C.; banded
T1 construct: Human PKMYT1 75-362 was cloned as a TEV cleavable 6xHis fusion; 6xHis (TEV cleavable) (cleaved yes); made in house; host or cells: bacterial cells
T1 sequence (Q99640 75-362): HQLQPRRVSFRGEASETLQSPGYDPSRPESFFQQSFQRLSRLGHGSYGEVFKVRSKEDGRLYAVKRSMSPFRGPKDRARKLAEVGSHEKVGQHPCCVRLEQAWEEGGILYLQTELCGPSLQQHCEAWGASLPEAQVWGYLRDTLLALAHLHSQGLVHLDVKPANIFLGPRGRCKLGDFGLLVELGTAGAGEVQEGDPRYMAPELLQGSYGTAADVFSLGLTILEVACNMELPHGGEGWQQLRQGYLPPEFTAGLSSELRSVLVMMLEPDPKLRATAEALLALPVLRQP
Outline: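 Purified untagged human PKMYT1 75-362 at 15 nM final was tested in HEPES pH 7.5 with MgCl2, EGTA, Brij-35 and 1% DMSO. Intrinsic ATPase activity was measured with 500 uM ATP over 60 min at 26° C. ADP-Glo luminescence was read and IC50 fitted from 10-point, 3-fold dilution curves.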

WEE1 = target: T2, WEE1 (Homo sapiens, UniProt P30291); assay: Selectivity versus WEE1 assay (ADP-Glo enzymatic assay); type: biochemical; details: banded; for pIC50: ADP-Glo, 15 nM WEE1, 60 minutes at 26° C.; for PKMYT1 vs. WEE1 selectivity: fold difference in selectivity for PKMYT1 over WEE1, ">N" = at least in this band but could be higher
T2 construct: purchased Thermo Fisher PR7373A
Outline: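 WEE1 at 15 nM final in 50 mM HEPES pH 7.5, 10 mM MgCl2, 1 mM EGTA, 0.01% Brij-35, 1% DMSO; reaction started with 30 µM ATP, 60 min at 26 °C. ADP-Glo luminescence; IC50 from dose-response curves, replicates within 3-fold and r2 >0.9.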

[1] = test system: h-TERT-RPE1 TP53−/− parental cells; assay: Nuclear count cell proliferation assay, parental (wild type) h-TERT-RPE1 TP53−/− cells; type: cell-based; details: hTERT-RPE1, h-TERT-RPE1 TP53−/− parental (Wt), around 6 population doublings, banded, read-out: RPE Wt GI50
Method: (§1) h-TERT-RPE1 TP53−/− and CCNE1 high expressing clones (clone cell lines 7 and 15) were treated with test compounds dissolved in DMSO at serially diluted concentrations alongside a DMSO only control for around 6 population doublings time. Cells were then fixed with 4% Paraformaldehyde and the cell nuclei were stained with DAPI (Sigma D9542). Images covering each well were acquired by an Opera Phenix® High-Content Screening System (PerkinElmer). Image analysis was performed using Harmony® high-content analysis software (PerkinElmer). Data analysis was performed using Microsoft Excel® and GI50 estimates generated with GraphPad Prism v9. Percent nuclear count was compared to vehicle control wells and used to measure inhibition of proliferation.

[2] = test system: h-TERT-RPE1 TP53−/− CCNE1 high expressing clone cell line 7 (CL7); assay: Nuclear count cell proliferation assay, CCNE1 high expressing clone cell line 7 (CL7) of h-TERT-RPE1 TP53−/−; type: cell-based; details: banded; for Selectivity Ratio Wt vs. CL7: GI50 ratio RPE Wt vs. CL7, >N = at least in this band; for GI50: hTERT-RPE1, h-TERT-RPE1 TP53−/− CCNE1 high clone CL7, nuclear count, around 6 population doublings, read-out: RPE CL7 GI50
Method: as §1

OVCAR3 cells = assay: Cancer cell line proliferation assay, nuclear count, OVCAR3 (CCNE1-amplified); type: cell-based; details: banded; for Selectivity ratio KYSE30 GI50 vs. OVCAR3 GI50: >N = at least in this band; for GI50: Homo sapiens, OVCAR-3, CCNE1-amplified ovarian cancer, nuclear count
Method: as §1
(§2) Cancer cell lines with either normal (KYSE-30) or amplified CCNE1 expression (OVCAR3-ovarian cancer) were evaluated for their sensitivity to PKMYT1 inhibitors in a nuclear count assay as described above for h-TERT-RPE1 TP53−/− and a CCNE1 high expressing clones, taking into account the slower cell cycle division times of these lines.

KYSE-30 cells = assay: Cancer cell line proliferation assay, nuclear count, KYSE-30 (normal CCNE1); type: cell-based; details: Homo sapiens, normal CCNE1 expression, banded, read-out: KYSE30 GI50
Method: as §1, §2

[3] = test system: h-TERT-RPE1 TP53−/− CCNE1 high expressing clone cell line 15 (CL15); assay: Nuclear count cell proliferation assay, CCNE1 high expressing clone cell line 15 (CL15) of h-TERT-RPE1 TP53−/−; type: cell-based; details: banded; for Selectivity Ratio Wt vs. CL15: GI50 ratio RPE Wt vs. CL15, >N = at least in this band; for GI50: h-TERT-RPE1 TP53−/− CCNE1 high clone CL15, nuclear count, around 6 population doublings, read-out: RPE CL15 GI50
Method: as §1

T2 sequence (P30291 whole entry): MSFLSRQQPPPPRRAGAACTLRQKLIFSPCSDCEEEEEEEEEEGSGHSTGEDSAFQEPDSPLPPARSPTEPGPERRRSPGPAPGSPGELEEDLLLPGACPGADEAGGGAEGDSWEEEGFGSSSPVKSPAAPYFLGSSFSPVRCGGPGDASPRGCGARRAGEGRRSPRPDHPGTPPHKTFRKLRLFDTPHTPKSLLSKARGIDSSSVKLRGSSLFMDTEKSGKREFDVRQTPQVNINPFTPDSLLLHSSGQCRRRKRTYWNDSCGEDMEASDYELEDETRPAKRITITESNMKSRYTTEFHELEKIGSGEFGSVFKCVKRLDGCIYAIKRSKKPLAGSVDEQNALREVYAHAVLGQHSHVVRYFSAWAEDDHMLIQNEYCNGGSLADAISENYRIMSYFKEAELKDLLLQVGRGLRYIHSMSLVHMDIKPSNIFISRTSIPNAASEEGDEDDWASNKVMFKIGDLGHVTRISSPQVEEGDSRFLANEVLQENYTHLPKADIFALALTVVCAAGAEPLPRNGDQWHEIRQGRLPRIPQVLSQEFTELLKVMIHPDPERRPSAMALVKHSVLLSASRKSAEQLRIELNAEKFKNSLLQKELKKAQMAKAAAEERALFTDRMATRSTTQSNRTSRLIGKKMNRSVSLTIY

SMILES | pIC50 (Human PKMYT1) | pIC50 (WEE1) | PKMYT1 vs. WEE1 selectivity (WEE1) | GI50 [1] | Selectivity Ratio Wt vs. CL7 [2] | GI50 [2] | Selectivity ratio KYSE30 GI50 vs. OVCAR3 GI50 (OVCAR3 cells) | GI50 (OVCAR3 cells) | GI50 (KYSE-30 cells) | Selectivity Ratio Wt vs. CL15 [3] | GI50 [3]
Cc1ccc(O)c(C)c1NC(=O)c1cnc(Nc2ccn([C@@H]3CCN(Cc4ccccc4)C3)n2)s1 [BAA-113, 2-[[1-[(3R)-1-Benzylpyrrolidin-3-yl]pyrazol-3-yl]amino]-N-(3-hydroxy-2,6-dimethyl-phenyl)thiazole-5-carboxamide] | 6.00 to 7.30 | < 4.96 | >X (100-<1000 fold) | 3 to 10 µM | Y (10-30 fold) | 0.5 to 3 µM | – | – | – | – | –
Cc1ccc(O)c(C)c1NC(=O)c1cnc(NCCCNC(=O)OC(C)(C)C)s1 [BAA-071, tert-butyl N-[3-[5-[(3-hydroxy-2,6-dimethyl-phenyl)carbamoyl]thiazol-2-yllamino]propyl]carbamate] | 6.00 to 7.30 | < 4.96 | >X (100-<1000 fold) | > 10 µM | X (3-<10 fold) | 0.5 to 3 µM | – | – | – | – | –
CCNC(=O)Cn1cc(C)c(Nc2ncc(C(=O)Nc3c(C)ccc(O)c3C)s2)n1 [BAA-206, 2-[[1-[2-(ethylamino)-2-oxo-ethyl]-4-methyl-pyrazol-3-yl]amino]-N-(3-hydroxy-2,6-dimethyl-phenyl)thiazole-5-carboxamide] | > 7.30 | 4.96 to 6.00 | Y (1000-5000 fold) | – | – | – | >Y (10-30 fold) | 0.5 to 3 µM | > 10 µM | – | –
Cc1ccc(O)c(C)c1NC(=O)c1cnc(Nc2ccn(CC(=O)NC3CC3)n2)s1 [BAA-190] | > 7.30 | < 4.96 | Y (1000-5000 fold) | 3 to 10 µM | X (3-<10 fold) | 0.5 to 3 µM | – | – | – | – | –
Cc1ccc(O)c(C)c1NC(=O)c1cnc(Nc2ccn(CC(=O)N3CC4CCC(C3)N4)n2)s1 [BAA-230, 2-((1-(2-(3,8-diazabicyclo[3.2.1]octan-3-yl)-2-oxoethyl)-1H-pyrazol-3-yl)amino)-N-(3-hydroxy-2,6-dimethylphenyl)thiazole-5-carboxamide] | > 7.30 | < 4.96 | X (100-<1000 fold) | > 10 µM | X (3-<10 fold) | 3 to 10 µM | – | – | – | – | –
Cc1ccc(O)c(C)c1NC(=O)c1cnc(Nc2cc(C(F)(F)F)nn2C)s1 [BAA-046, N-(3-hydroxy-2,6-dimethyl-phenyl)-2-[[2-methyl-5-(trifluoromethyl)pyrazol-3-yl]amino]thiazole-5-carboxamide] | 6.00 to 7.30 | < 4.96 | >X (100-<1000 fold) | – | – | – | X (3-<10 fold) | 0.5 to 3 µM | 3 to 10 µM | – | –
Cc1ccc(O)c(C)c1NC(=O)c1cnc(Nc2ccn(CC(=O)NC3CCNCC3)n2)s1 [BAA-224, N-(3-hydroxy-2,6-dimethylphenyl)-2-((1-(2-oxo-2-(piperidin-4-ylamino)ethyl)-1H-pyrazol-3-yl)amino)thiazole-5-carboxamide] | > 7.30 | < 4.96 | X (100-<1000 fold) | 3 to 10 µM | Z (>30 fold) | < 0.5 µM | – | – | – | – | –
CCOC(=O)c1cn(C)nc1Nc1ncc(C(=O)Nc2c(C)ccc(O)c2C)s1 [BAA-129, ethyl 3-[[5-[(3-hydroxy-2,6-dimethyl-phenyl)carbamoyl]thiazol-2-yl]amino]-1-methyl-pyrazole-4-carboxylate] | 6.00 to 7.30 | < 4.96 | >Y (1000-5000 fold) | > 10 µM | – | – | – | – | – | X (3-<10 fold) | 0.5 to 3 µM
Cc1ccc(O)c(C)c1NC(=O)c1cnc(Nc2ccn(CC(=O)NCCN(C)C)n2)s1 [BAA-160] | 6.00 to 7.30 | < 4.96 | X (100-<1000 fold) | 3 to 10 µM | X (3-<10 fold) | 0.5 to 3 µM | – | – | – | – | –
Cc1ccc(O)c(C)c1NC(=O)c1cnc(Nc2ccn(CC(=O)OC(C)C)n2)s1 [BAA-209, Isopropyl 2-[3-[[5-[(3-hydroxy-2,6-dimethyl-phenyl)carbamoyl]thiazol-2-yl]amino]pyrazol-1-yl]acetate] | > 7.30 | < 4.96 | X (100-<1000 fold) | 0.5 to 3 µM | >X (3-<10 fold) | < 0.5 µM | – | – | – | – | –
Cc1ccc(O)c(C)c1NC(=O)c1cnc(NC2CC2)s1 [BAA-061, 2-(cyclopropylamino)-N-(3-hydroxy-2,6-dimethyl-phenyl)thiazole-5-carboxamide] | 6.00 to 7.30 | < 4.96 | X (100-<1000 fold) | 3 to 10 µM | – | – | – | – | – | X (3-<10 fold) | 0.5 to 3 µM
Cc1ccc(O)c(C)c1NC(=O)c1cnc(Nc2ccn(CC(=O)NC3CCN(C(=O)OC(C)(C)C)CC3)n2)s1 [BAA-152] | > 7.30 | 4.96 to 6.00 | X (100-<1000 fold) | > 10 µM | – | – | – | – | – | X (3-<10 fold) | 0.5 to 3 µM
Cc1ccc(O)c(C)c1NC(=O)c1cnc(Nc2ccn(CC(=O)N3CCN(CC4CC4)CC3)n2)s1 [BAA-183] | > 7.30 | < 4.96 | Y (1000-5000 fold) | 3 to 10 µM | X (3-<10 fold) | < 0.5 µM | – | – | – | – | –

Reference: patent US20260297042A1, “BIARYLAMIDE DERIVATIVES AND THEIR USE AS PKMYT1 INHIBITORS” (CANCER RESEARCH TECHNOLOGY LIMITED, priority 2023, published 2026)
